Source: patent publication US11541029B2, “High penetration compositions and their applications” (Techfields Pharma Co., Ltd., priority 2008, dated 2023)

What was measured:
[1] = tested on: human myeloma cell line implanted into mice; assay: Survival of mice with multiple myeloma (Example 110, Study B); format: in vivo; conditions: n=5
Description: Study B: For evaluation of antitumor activity, a human myeloma cell line derived from the ascites of a patient with multiple myeloma was implanted into mice. The experiment was carried out on 17 groups of mice. Control group (A, orally), chlorambucil (group B1: 1 mg/kg, orally, group B2, 3 mg/kg, orally, group B3:1 mg/kg, transdermally, and group B4: 3 mg/kg, transdermally), melphalan (group C1: 1 mg/kg, orally, group C2, 3 mg/kg, orally, group C3:1 mg/kg, transdermally, and group C4: 3 mg/kg, transdermally), N,N-diethylaminoethyl 4-[bis(2-chloroethyl)amino]benzenebutyrate.HBr (the HPC of chlorambucil (group D1: 1 mg/kg, orally, group D2, 3 mg/kg, orally, group D3:1 mg/kg, transdermally, and group D4: 3 mg/kg, transdermally), and 4-[bis(2-chloroethyl)amino]-N-acetyl-L-phenylalanine N,N-diethylaminoethyl ester hydrobromide (the HPC of melphalan) (group E1: 1 mg/kg, orally, group E2, 3 mg/kg, orally, group E3:1 mg/kg, transdermally, and group E4: 3 mg/kg, transdermally).

[2] = tested on: human myeloma cell line implanted into mice; assay: Survival and weight loss of myeloma mice (Example 111); format: in vivo; conditions: for Weight Loss: day 21; for Life Elongation Rate / None Disease Rate / Survival Period: n=7
Source text: A human myeloma cell line derived from the ascites of a patient with multiple myeloma was implanted into mice. The mice was divided into 11 groups: control group (A, orally), melphalan (B1 and B2, orally), chlorambucil (C1 and C2, orally), N,N-diethylaminoethyl 4-[bis(2-chloroethyl)amino]benzenebutyrate.HBr (D1 and D2, transdermally), 4-[bis(2-chloroethyl)amino]-N-acetyl-L-phenylalanine N,N-diethylaminoethyl ester hydrobromide (E1 and E2, transdermally in 5% aqueous solution), and diethylaminoethyl 4-[bis(2-methylsulfonylethyl)amino]benzenebutyrate.HCl (F1 and F2, transdermally in 5% aqueous solution). The body weight loss of mice was determined on day 21.

[3] = tested on: Human breast cancer cells (BCAP-37); assay: Human breast cancer xenograft in nude mice
Description: Human breast cancer cells (BCAP-37, 2-3 mm^3 of tumor tissue was used in each mouse) were subcutaneously xenografted into nude mice (BALB, 12 groups, 7 mice each group). […] 50 μl of 5% (equal to 2.5 mg of the HPCs) diethylaminoethyl acetylsalicylate.HCl (P-1, in pure water); 1-piperidinepropyl 2[(2,6-dichlorophenyl)amino]benzene acetate.HCl (P-2, in water), 1-pyrrolidinepropyl 2-(3-benzoylphenyl) propionate.HCl (P-3, in water), 4-piperidinemethyl 2-(3-phenoxyphenyl)propionate.HCl (P-4, in water), 3-piperidinemethyl 2-(ρ-isobutylphenyl) propionate.HCl (P-5, in water), diethylaminoethyl 1-(p-chlorobenzoyl)-5-methoxy-2-methylindole 3-acetate.HCl (P-11, in water), 2-(4-morpholinyl)ethyl (Z)-5-fluoro-2-methyl-1-[(4-methylsulfinyl)phenylmethylene]-1H-indene-3-acetate.

[4] = Distribution in organs of rats killed with CO2 (absence of general circulation); conditions: 5 hrs after 0.3 mmol/kg diethylaminoethyl acetylsalicylate HCl salt on back of killed rats;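 note: tissue concentration in nmol/g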
Description: 0.3 mmol/kg of diethylaminoethyl acetylsalicylate HCl salt (10% in pure water) was applied to the back of rats (10 cm^2) which were killed with CO2. The rats were shaken for 5 hrs, then the HPCs and parent drugs in organs of rats were determined.

[5] = 1.5 mg/kg per day, transdermally
[6] = 50 μl of 5% topically every 8 hours
[7] = 50 μl of 5% topically every 8 hours, in g (unit assumed)

SMILES: Br.CCN(CC)CCOC(=O)[C@H](Cc1ccc(N(CCCl)CCCl)cc1)NC(C)=O [4-[bis(2-chloroethyl)amino]-N-acetyl-L-phenylalanine N,N-diethylaminoethyl ester hydrobromide]
- Life Elongation Rate ([1]; 1 mg/kg per day, orally): 151%
- Survival Period ([1]; 1 mg/kg per day, orally): 68.7 ± 5.1 days
- Life Elongation Rate ([1]; 1 mg/kg per day, transdermally): 190%
- Survival Period ([1]; 1 mg/kg per day, transdermally): 86.7 ± 4.5 days
- Life Elongation Rate ([1]; 3 mg/kg per day, orally): 187%
- Survival Period ([1]; 3 mg/kg per day, orally): 85.2 ± 4.3 days
- Life Elongation Rate ([1]; 3 mg/kg per day, transdermally): 192%
- Survival Period ([1]; 3 mg/kg per day, transdermally): 87.5 ± 4.2 days
- Weight Loss [2, 5]: 5%
- Life Elongation Rate [2, 5]: 272%
- None Disease Rate [2, 5]: 4/7
- Survival Period [2, 5]: 118.5 ± 7.6 days
- Weight Loss ([2]; 3 mg/kg per day, transdermally): 9%
- Life Elongation Rate ([2]; 3 mg/kg per day, transdermally): 265%
- None Disease Rate ([2]; 3 mg/kg per day, transdermally): 3/7
- Survival Period ([2]; 3 mg/kg per day, transdermally): 115.2 ± 6.8 days

SMILES: Br.CCN(CC)CCOC(=O)CCCc1ccc(N(CCCl)CCCl)cc1 [N,N-diethylaminoethyl 4-[bis(2-chloroethyl)amino]benzenebutyrate.HBr]
- Life Elongation Rate ([1]; 1 mg/kg per day, orally): 158%
- Survival Period ([1]; 1 mg/kg per day, orally): 71.7 ± 3.3 days
- Life Elongation Rate ([1]; 1 mg/kg per day, transdermally): 188%
- Survival Period ([1]; 1 mg/kg per day, transdermally): 85.7 ± 4.4 days
- Life Elongation Rate ([1]; 3 mg/kg per day, orally): 194%
- Survival Period ([1]; 3 mg/kg per day, orally): 88.5 ± 3.2 days
- Life Elongation Rate ([1]; 3 mg/kg per day, transdermally): 201%
- Survival Period ([1]; 3 mg/kg per day, transdermally): 91.5 ± 4.7 days
- Weight Loss [2, 5]: 7%
- Life Elongation Rate [2, 5]: 282%
- None Disease Rate [2, 5]: 4/7
- Survival Period [2, 5]: 122.5 ± 7.3 days
- Weight Loss ([2]; 3 mg/kg per day, transdermally): 10%
- Life Elongation Rate ([2]; 3 mg/kg per day, transdermally): 269%
- None Disease Rate ([2]; 3 mg/kg per day, transdermally): 4/7
- Survival Period ([2]; 3 mg/kg per day, transdermally): 117.2 ± 6.1 days

SMILES: CCN(CC)CCOC(=O)Cc1c(C)n(C(=O)c2ccc(Cl)cc2)c2ccc(OC)cc12.Cl [P-11, diethylaminoethyl 1-(p-chlorobenzoyl)-5-methoxy-2-methylindole 3-acetate.HCl]
- tumor Size at day 42 [3, 6]: 230 ± 105 mm^3
- Weight of mice at day 42 [3, 7]: 23 ± 2

SMILES: CC1=C(CC(=O)OCCN2CCOCC2)c2cc(F)ccc2/C1=C\c1ccc([S+](C)[O-])cc1.Cl (stereo not drawn) [P-12, 2-(4-morpholinyl)ethyl (Z)-5-fluoro-2-methyl-1-[(4-methylsulfinyl)phenylmethylene]-1H-indene-3-acetate. HCl]
- tumor Size at day 42 [3, 6]: 240 ± 60 mm^3
- Weight of mice at day 42 ([3]; in vivo): 23 ± 3

SMILES: CCN(CC)CCOC(=O)Cc1ccccc1Oc1ccc(Cl)cc1Cl.Cl [P-19, diethylaminoethyl 2-(2,4-dichlorophenoxy)benzeneacetate.HCl]
- tumor Size at day 42 [3, 6]: 260 ± 55 mm^3
- Weight of mice at day 42 ([3]; in vivo): 22 ± 2

SMILES: CCN(CC)CCOC(=O)C(C)c1ccc2c(c1)C(=O)Cc1cc(C)ccc1O2.Cl (stereo not drawn) [P-37, diethylaminoethyl 2-(8-methyl-10,11-dihydro-11-oxodibenz(b,f)oxepin-2-yl)propionate.HCl]
- tumor Size at day 42 [3, 6]: 270 ± 70 mm^3
- Weight of mice at day 42 ([3]; in vivo): 23 ± 3

SMILES: Cl.O=C(OCCCN1CCCC1)c1ccccc1Nc1cccc(C(F)(F)F)c1 [P-48]
- tumor Size at day 42 [3, 6]: 280 ± 50 mm^3
- Weight of mice at day 42 [3, 7]: 22 ± 3

SMILES: CN(C)CCCC(=O)OC1=C(C(=O)Nc2ccccn2)N(C)S(=O)(=O)c2ccccc21.Cl [P-51, 4-N,N-dimethylaminobutyryloxy-2-methyl-N-2-pyridinyl-2H,1,2-benzothiazine-3-carboxamide 1,1-dioxide.HCl]
- tumor Size at day 42 [3, 6]: 390 ± 55 mm^3
- Weight of mice at day 42 ([3]; in vivo): 23 ± 2

SMILES: CCN(CC)CCOC(=O)CCCc1ccc(N(CCS(C)(=O)=O)CCS(C)(=O)=O)cc1.Cl [diethylaminoethyl 4-[bis(2-methylsulfonylethyl)amino]benzenebutyrate.HCl]
- Weight Loss [2, 5]: 7%
- Life Elongation Rate [2, 5]: 259%
- None Disease Rate [2, 5]: 4/7
- Survival Period [2, 5]: 112.5 ± 8.7 days
- Weight Loss ([2]; 3 mg/kg per day, transdermally): 11%
- Life Elongation Rate ([2]; 3 mg/kg per day, transdermally): 256%
- None Disease Rate ([2]; 3 mg/kg per day, transdermally): 3/7
- Survival Period ([2]; 3 mg/kg per day, transdermally): 111.2 ± 5.9 days

SMILES: CCN(CC)CCOc1ccccc1C(=O)O [diethylaminoethyl salicylic acid]
- concentration in Leg muscle [4]: 6.2 ± 3.2 nmol/g
- concentration in kidney [4]: 3.1 ± 1.6 nmol/g
- concentration in liver [4]: 1.5 ± 1.2 nmol/g
- concentration in pancreas [4]: 3.1 ± 1.1 nmol/g
- concentration in stomach [4]: 3.2 ± 1.3 nmol/g

SMILES: N[C@@H](Cc1ccc(N(CCCl)CCCl)cc1)C(=O)O [melphalan, reference compound]
- Life Elongation Rate ([1]; 1 mg/kg per day, orally): 106%
- Survival Period ([1]; 1 mg/kg per day, orally): 48.1 ± 5.3 days
- Life Elongation Rate ([1]; 1 mg/kg per day, transdermally): 98%
- Survival Period ([1]; 1 mg/kg per day, transdermally): 44.7 ± 3.6 days
- Life Elongation Rate ([1]; 3 mg/kg per day, orally): 155%
- Survival Period ([1]; 3 mg/kg per day, orally): 70.5 ± 3.2 days
- Life Elongation Rate ([1]; 3 mg/kg per day, transdermally): 100%
- Survival Period ([1]; 3 mg/kg per day, transdermally): 45.6 ± 3.6 days
- Weight Loss ([2]; 1.5 mg/kg per day, orally): 10%
- Life Elongation Rate ([2]; 1.5 mg/kg per day, orally): 121%
- None Disease Rate ([2]; 1.5 mg/kg per day, orally): 0/7
- Survival Period ([2]; 1.5 mg/kg per day, orally): 52.7 ± 4.3 days
- Weight Loss ([2]; 3 mg/kg per day, orally): 20%
- Life Elongation Rate ([2]; 3 mg/kg per day, orally): 192%
- None Disease Rate ([2]; 3 mg/kg per day, orally): 2/7
- Survival Period ([2]; 3 mg/kg per day, orally): 83.5 ± 5.8 days

SMILES: O=C(O)c1ccccc1O [salicylic acid]
- concentration in Leg muscle [4]: 41.4 ± 11.2 nmol/g
- concentration in kidney [4]: 21.2 ± 7.6 nmol/g
- concentration in liver [4]: 12.2 ± 6.1 nmol/g
- concentration in pancreas [4]: 14.1 ± 1.2 nmol/g
- concentration in stomach [4]: 25.1 ± 2.4 nmol/g
